The source of these data is patent publication US8569302B2, “Inhibitors of flaviviridae viruses” (Gilead Sciences, Inc., priority 2009, dated 2013).

The subject of the assay is human hepatoma Huh-7 cell line harboring a HCV replicon. Nature of the assay: HCV replicon assay (inhibition of viral replication, luciferase readout). It is filed as cell-based. As to conditions: Hepatitis C virus, 72 h, Huh-7 HCV replicon cells, 3 days incubation. Summed up:
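Huh-7 replicon cells were exposed to 10-point 3-fold compound dilutions (0.44% DMSO) for 3 days at 37 °C. Replicon replication was read by Dual-Glo luciferase, with background from protease-inhibitor wells subtracted, and viability by calcein AM. EC50/CC50 came from a Hill-equation fit versus DMSO controls.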
As for `Cn1nnnc1S(=O)(=O)[C@H]1CC[C@H](N(c2cc(C#CC(C)(C)C)sc2C(=O)O)C(=O)[C@H]2CC[C@H](C)CC2)CC1` [Compound 110, 5-(3,3-Dimethylbut-1-ynyl)-3-(4-methyl-N-(4-(1-methyl-1H-tetrazol-5-ylsulfonyl)cyclohexyl)cyclohexanecarboxamido)thiophene-2-carboxylic acid], testing at 2 µM gave an inhibition of 100%.

As for `CC(C)(C)C#Cc1cc(N(C(=O)[C@H]2CC[C@H](C)CC2)[C@H]2C[C@@H](Oc3cccnc3)C2)c(C(=O)O)s1` [Compound 20, 5-(3,3-Dimethyl-but-1-ynyl)-3-{(trans-4-methyl-cyclohexanecarbonyl)-[cis-3-(pyridin-3-yloxy)-cyclobutyl]-amino}-thiophene-2-carboxylic acid], the inhibition (in general, the relative decrease from the control value, in per cent) at 2 µM turned out to be 99.8%.

The molecule `CC1=CCC(C(=O)N(c2cc(C#CC(C)(C)C)sc2C(=O)O)[C@H]2CC[C@H](O[C@@H]3CCOC3)CC2)[C@@H](C)C1` (single isomer, unassigned) [Compound 307, 5-(3,3-Dimethyl-but-1-ynyl)-3-{(4,6S-dimethyl-cyclohex-3-enecarbonyl)-[4-(tetrahydro-furan-3R-yloxy)-trans-cyclohexyl]-amino}-thiophene-2-carboxylic acid] registered an inhibition at 2 µM of 100%.

In turn, `C[C@H]1CC[C@H](C(=O)N(c2cc(C#CC3(C(F)(F)F)CC3)sc2C(=O)O)[C@H]2CC[C@H](Oc3ccc(O)nn3)CC2)CC1` [Compound 342, 3-((1r,4R)—N-((1r,4R)-4-(6-hydroxypyridazin-3-yloxy)cyclohexyl)-4-methylcyclohexanecarboxamido)-5-((1-(trifluoromethyl)cyclopropyl)ethynyl)thiophene-2-carboxylic acid] registered an inhibition at 2 µM of 100%.

In the case of `C[C@@H](CCOc1cccnc1)N(c1cc(C#CC(C)(C)C)sc1C(=O)O)C(=O)[C@H]1CC[C@H](C)CC1` [Compound 58], the inhibition at 2 µM came out at 99.9%.

As to `CN(C)c1ncc(S(=O)(=O)N2CCC(N(c3cc(C#CC(C)(C)C)sc3C(=O)O)C(=O)[C@H]3CC[C@H](C)CC3)CC2)cn1` [Compound 204, 3-[[1-(2-Dimethylamino-pyrimidine-5-sulfonyl)-piperidin-4-yl]-(4-methyl-cyclohexanecarbonyl)-amino]-5-(3,3-dimethyl-but-1-ynyl)-thiophene-2-carboxylic acid], the inhibition at 2 µM worked out at 99.1%.

`CC(C)(C)C#Cc1cc(N(C(=O)[C@H]2CC[C@H](C)CC2)[C@H]2CCN(S(=O)(=O)c3cnc(=O)[nH]c3)C2)c(C(=O)O)s1` [Compound 214, 5-(3,3-Dimethyl-but-1-ynyl)-3-{(4-methyl-cyclohexanecarbonyl)-[1-(2-oxo-1,2-dihydro-pyrimidine-5-sulfonyl)-pyrrolidin-3-yl]-amino}-thiophene-2-carboxylic acid] gave an inhibition at 2 µM of 69.9%.

For the molecule `CC1=CC[C@@H](C(=O)N(c2cc(C#CC(C)(C)C)sc2C(=O)O)[C@H]2CC[C@H](Oc3cc(CN(C)C)ccn3)CC2)CC1` [Compound 337, 3-[[4-(4-Dimethylaminomethyl-pyridin-2-yloxy)-trans-cyclohexyl]-(4-methyl-cyclohex-3-enecarbonyl)-amino]-5-(3,3-dimethyl-but-1-ynyl)-thiophene-2-carboxylic acid], the inhibition at 2 µM is 100%.

In turn, `CC(C)(C)C#Cc1cc(N(C(=O)[C@H]2CC[C@H](C)CC2)[C@H]2CC[C@H](Oc3ncccc3C(F)(F)F)CC2)c(C(=O)O)s1` [Compound 16, 5-(3,3-Dimethyl-but-1-ynyl)-3-{(trans-4-methyl-cyclohexanecarbonyl)-[trans-4-(3-trifluoromethyl-pyridin-2-yloxy)-cyclohexyl]-amino}-thiophene-2-carboxylic acid] returned an inhibition at 2 µM of 75.1%.

`CC1CCC(C(=O)N(c2cc(C#CC(C)(C)C)sc2C(=O)O)C2CCC(Oc3cccc(CN4CCCC4)n3)CC2)CC1` (stereo not drawn) [Compound 187, 3-[[-4-(6-pyrrolidin-1-ylmethyl-pyridin-2-yloxy)-cyclohexyl]-(4-methyl-cyclohexanecarbonyl)-amino]-5-(3,3-Dimethyl-but-1-ynyl)-thiophene-2-carboxylic acid]: the inhibition at 2 µM came out at 100%.

Molecule `CC(C)(C)C#Cc1cc(N(C(=O)[C@H]2CC[C@H](C)CC2)[C@H]2CC[C@H](O[C@@H]3CCNC3)CC2)c(C(=O)O)s1` [Compound 231, 5-(3,3-dimethylbut-1-ynyl)-3-(4-methyl-N-(4-((R)-pyrrolidin-3-yloxy)cyclohexyl)cyclohexanecarboxamido)thiophene-2-carboxylic acid] yielded an inhibition at 2 µM of 99.9%.

In turn, `CC1=CCC(C(=O)N(c2cc(C#CC(C)(C)C)sc2C(=O)O)[C@H]2CC[C@H](O[C@H]3CCOC3)CC2)[C@@H](C)C1` (single isomer, unassigned) [Compound 302, 5-(3,3-dimethyl-but-1-ynyl)-3-{(4,6S-dimethyl-cyclohex-3-enecarbonyl)-[4-(tetrahydro-furan-3S-yloxy)-trans-cyclohexyl]-amino}-thiophene-2-carboxylic acid] gave an inhibition at 2 µM of 100%.

`CC(C)(C)C#Cc1cc(N(C(=O)[C@H]2CC[C@H](C)CC2)[C@H]2CC[C@@H](Oc3ccc(O)nn3)CC2)c(C(=O)O)s1` [Compound 178, 5-(3,3-Dimethylbut-1-ynyl)-3-(N-(4-(6-hydroxypyridazin-3-yloxy)cyclohexyl)-4-methylcyclohexanecarboxamido)thiophene-2-carboxylic acid] returned an inhibition at 2 µM of 100%.

Consider `Cc1nsc(OC2CCC(N(c3cc(C#CC(C)(C)C)sc3C(=O)O)C(=O)[C@H]3CC[C@H](C)CC3)CC2)n1` (stereo partly drawn) [Compound 154, 5-(3,3-Dimethylbut-1-ynyl)-3-(4-methyl-N-(4-(3-methyl-1,2,4-thiadiazol-5-yloxy)cyclohexyl)cyclohexanecarboxamido)thiophene-2-carboxylic acid], for which 2 µM produced 99.7% inhibition.

On to `CCc1cc(O[C@H]2CC[C@H](N(C(=O)C3CCC(C)CC3)c3cc(C#CC(C)(C)C)sc3C(=O)O)CC2)cc(CC)n1` (stereo partly drawn) [Compound 26, 3-[[4-(2,6-diethyl-pyridin-4-yloxy)-cyclohexyl]-(4-methyl-cyclohexanecarbonyl)-amino]-5-(3,3-Dimethyl-but-1-ynyl)-thiophene-2-carboxylic acid], for which the inhibition at 2 µM is 99.8%.

As for `CC1CCC(C(=O)N(CCOc2ccccn2)c2cc(C#CC(C)(C)C)sc2C(=O)O)CC1` (stereo not drawn) [Compound 139, 5-(3,3-dimethyl-but-1-ynyl)-3-{(4-methyl-cyclohexanecarbonyl)-[3-(pyridin-2-yloxy)-ethyl]-amino}-thiophene-2-carboxylic acid], the inhibition at 2 µM turned out to be 96.4%.

The molecule `CC(C)(C#Cc1cc(N(C(=O)[C@H]2CC[C@H](C)CC2)[C@H]2CC[C@H](Oc3ccc(O)nn3)CC2)c(C(=O)O)s1)C(F)(F)F` [Compound 343, 3-((1r,4R)—N-((1r,4R)-4-(6-hydroxypyridazin-3-yloxy)cyclohexyl)-4-methylcyclohexanecarboxamido)-5-(4,4,4-trifluoro-3,3-dimethylbut-1-ynyl)thiophene-2-carboxylic acid] displayed an inhibition at 2 µM of 100%.

In the case of `C[C@H]1CC[C@H](C(=O)N(c2cc(C#CC3(C(F)(F)F)CC3)sc2C(=O)O)[C@H]2CC[C@H](Oc3ccncn3)CC2)CC1` [Compound 344, 3-((1r,4R)-4-methyl-N-((1r,4R)-4-(pyrimidin-4-yloxy)cyclohexyl)cyclohexanecarboxamido)-5-(2-(1-(trifluoromethyl)cyclopropyl)ethynyl)thiophene-2-carboxylic acid], at 2 µM the inhibition was 99.8%.
